Assay [1] relates to TNFα secretion in RAW 264.7 macrophages. Put plainly: TNFα release assay in RAW 264.7 macrophages stimulated with LPS. Format: cell-based, mouse.
Procedure: The purpose of this assay is to measure the ability of small molecules to inhibit the secretion of TNFα in cultured macrophages stimulated with lipopolysaccharide (LPS). […] Dexamethasone, a potert agonist of the glucocorticoid receptor is used a positive control for inhibition of TNFα release.
Day 1: Seed RAW 264.7 macrophages into 96 well culture plates. Remove culture media from RAW 264.7 cell growing in a 75 mm^2 tissue culture flask (cells should be at ˜70% confluence) and add 10 mL of warmed complete growth media (DMEM+10% FBS+1× pen/step). The cells are scraped into suspension using a sterile plate scraper and homogenized by pipetting up and down with a 10 mL serological pipette. The cell concentration is determined using a clinical hematoctyometer. Cells are then diluted to 150,000 cells per mL into growth media. […]
Day 2: The test compound sample plate is prepared. […] Add 100 μl of Celltiter-glo reagent to each well of the cell culture plate and afterwards measure the luminescence signal (CPS) of the plate using the Victor 5 plate reader (0.3 second read; 60 second plate shaking prior to read). […]
Use 20 μl of media supernatant per well for TNFα ELISA. […] After addition of stop solution, measure OD 450 nm using the Victor 5 plate reader (0.1 second/well scan). […]
In the next assay the test system is NFκB. Kind of assay: NFκB-driven luciferase reporter in RAW 264.7 cells challenged with LPS. To be noted: read-out: NFκB Inhibitory Activity, IC50 μM. Format: cell-based, mouse. The method, then:
RAW 264.7 cells transfected with an NFκB-driven luciferase reporter are plated in 96 well plates. Cells are treated with Vehicle (0.1% ethanol) or test compounds for 2 hours. As a positive control for inhibition of NFκB signaling, 6 wells are treated with 10 μM dexamethasone. Cells are then challenged with 200 ng/mL LPS for 3 hours in the presence of test compounds. A subset of wells treated with vehicle should remain unstimulated with LPS to determine the floor signal of the assay. NFκB driven luciferase activity is developed by addition of BriteLite luciferase kit (Perkin-Elmer) and measured using a Victor V plate reader. NFκB activity (luciferase activity) for each treatment was normalized to Vehicle wells treated with LPS (% NFκB Response). AlamarBlue was used to monitor cell viability to ensure that inhibition of luciferase signal was not a result of compound cytotoxicity.
RAW 264.7 cells stably expressing a 3×NF-κB response element-driven luciferase reporter were seeded into 96 well plates. After 18 hours, cells were pre-treated with compounds of the invention for 2 hours, and then stimulated with LPS (lipopolysaccharide, 200 ng/mL) or vehicle control for 3 h in the presence of the compounds of the invention. A set of six vehicle was left unstimulated with LPS in order to measure the assay floor. AlamarBlue viability dye (Invitrogen) was added to cells simultaneously with the delivery of LPS (final AlamarBlue concentration of 10%). After the 3 h incubation period with LPS, cell viability was measured by reading fluorescence (excitation 550 nm, emission 595 nm) with a Perkin Elmer Victor V plate reader. Then cell media was aspirated from each well. Luciferase signal was then developed by addition of the Britelite Plus reagent (Perkin Elmer). Luciferase activity was measured with the Perkin Elmer Victor V plate reader. NF-κB activity was expressed as a percent of the vehicle control wells (stimulated with LPS). Compounds were tested at 6 dose point titrations in triplicate to determine IC50 values.

Setting [2] is: Mus musculus, RAW264.7, 200 ng/mL LPS for 3 hours.

Where two headings read alike, the source gives them in different places.

`CC/C=C\C/C=C\C/C=C\C/C=C\C/C=C\C/C=C\CCC(=O)Nc1ccc(O)c(C(=O)O)c1` [III-1]: the IC50 in assay [1] (10 ng/mL LPS, 3 hours, TNFα ELISA, read-out: TNFα Secrection, IC50 μM) was 146 µM; in the assay on NFκB (200 ng/mL LPS for 3 hours), less than 200 µM.

Take `CCCCC/C=C\C/C=C\C/C=C\C/C=C\CCCC(=O)Nc1ccc(O)c(C(=O)O)c1` [Compound 18, 2-hydroxy-5-(5Z,8Z,11Z,14Z)-icosa-5,8,11,14-tetraenamidobenzoic acid]: the IC50 in the assay on NFκB (setting [2]) is greater than 200 µM.

`O=C(O)c1ccccc1O` [SA, salicylic acid, reference compound]: the concentration for half-maximal inhibition (IC50) in the assay on NFκB (setting [2]) was greater than 200 µM.

Consider `CC/C=C\C/C=C\C/C=C\C/C=C\C/C=C\C/C=C\CCC(=O)Oc1ccc(-c2ccc(F)cc2F)cc1C(=O)OCC` [IVc-2, ethyl 4-((4Z,7Z,10Z,13Z,16Z,19Z)-docosa-4,7,10,13,16,19-hexaenoyloxy)-2′,4′-difluorobiphenyl-3-carboxylate], for which, in the assay on NFκB (setting [2]), the IC50 is less than 200 µM.

Regarding `CC/C=C\C/C=C\C/C=C\C/C=C\C/C=C\C/C=C\CCC(=O)Oc1ccccc1C(=O)O` [Ia-1, 2-((4Z,7Z,10Z,13Z,16Z,19Z)-docosa-4,7,10,13,16,19-hexaenoyloxy)benzoic acid], in the assay on NFκB (setting [2]), the IC50 is greater than 200 µM.

With `O=C(O)c1ccccc1O` [salicylate, Salicylate], the “inhibition of the production of TNFα (in words, FIG. 2)” value in assay [1] (LPS) was “do not appreciably inhibit”.

For `CC/C=C\C/C=C\C/C=C\C/C=C\C/C=C\C/C=C\CCC(=O)N(C)CCNC(=O)c1ccccc1O` [Ih-4, 2-hydroxy-N-(2-((4Z,7Z,10Z,13Z,16Z,19Z)—N-methyldocosa-4,7,10,13,16,19-hexaenamido)ethyl)benzamide], in the assay on NFκB (setting [2]), the IC50 is less than 200 µM.

The record behind these values is patent publication US9085527B2, “Fatty acid acylated salicylates and their uses” (Catabasis Pharmaceuticals, Inc., priority 2008, dated 2015).
